From the supplement of paper PMC10307832

What was measured:
Assay in all cases: relative viability (nuclei count vs DMSO), 5 days (fraction); higher = more cells survive
R406 + Tozasertib = compound: COc1cc(Nc2ncc(F)c(Nc3ccc4c(n3)NC(=O)C(C)(C)O4)n2)cc(OC)c1OC [R406] + Cc1cc(Nc2cc(N3CCN(C)CC3)nc(Sc3ccc(NC(=O)C4CC4)cc3)n2)n[nH]1 [Tozasertib] (partner 0.1 µM)
Summary of the method: (§1)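 Lung cancer cell lines were pin-tool dosed in 1536-well plates on the day after seeding, with either a lone drug or a fixed anchor-drug dose plus five library-drug doses (not always all listed) in √10 steps. Nuclei were counted on 4× images after 5 days. Relative viability is the ratio of treated-well to vehicle-well nuclei counts, with each value a median of duplicate plates.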

Daporinad + Pemetrexed = compound: O=C(/C=C/c1cccnc1)NCCCCC1CCN(C(=O)c2ccccc2)CC1 [Daporinad] + Nc1nc2[nH]cc(CCc3ccc(C(=O)N[C@@H](CCC(=O)O)C(=O)O)cc3)c2c(=O)[nH]1 [Pemetrexed] (partner 0.2 µM)
Summary of the method: as §1

Daporinad + Crizotinib = compound: O=C(/C=C/c1cccnc1)NCCCCC1CCN(C(=O)c2ccccc2)CC1 [Daporinad] + C[C@@H](Oc1cc(-c2cnn(C3CCNCC3)c2)cnc1N)c1c(Cl)ccc(F)c1Cl [Crizotinib] (partner 1 µM)
Summary of the method: as §1

Daporinad + Navitoclax = compound: O=C(/C=C/c1cccnc1)NCCCCC1CCN(C(=O)c2ccccc2)CC1 [Daporinad] + CC1(C)CCC(c2ccc(Cl)cc2)=C(CN2CCN(c3ccc(C(=O)NS(=O)(=O)c4ccc(N[C@H](CCN5CCOCC5)CSc5ccccc5)c(S(=O)(=O)C(F)(F)F)c4)cc3)CC2)C1 [Navitoclax] (partner 0.5 µM)
Summary of the method: as §1

| Cell Line | relative viability (R406 + Tozasertib; first compound 0.08 µM) | relative viability (R406 + Tozasertib; first compound 0.8 µM) | relative viability (R406 + Tozasertib; first compound 2.53 µM) | relative viability (R406 + Tozasertib; first compound 8 µM) | relative viability (Daporinad + Pemetrexed; first compound 0.0005 µM) | relative viability (Daporinad + Pemetrexed; first compound 0.001581 µM) | relative viability (Daporinad + Pemetrexed; first compound 0.005 µM) | relative viability (Daporinad + Pemetrexed; first compound 0.01581 µM) | relative viability (Daporinad + Crizotinib; first compound 0.0005 µM) | relative viability (Daporinad + Crizotinib; first compound 0.001581 µM) | relative viability (Daporinad + Crizotinib; first compound 0.005 µM) | relative viability (Daporinad + Crizotinib; first compound 0.01581 µM) | relative viability (Daporinad + Navitoclax; first compound 0.0005 µM) | relative viability (Daporinad + Navitoclax; first compound 0.001581 µM) | relative viability (Daporinad + Navitoclax; first compound 0.005 µM) | relative viability (Daporinad + Navitoclax; first compound 0.01581 µM) | relative viability (R406 + Tozasertib; first compound 0.253 µM) |
| --- | --- | --- | --- | --- | --- | --- | --- | --- | --- | --- | --- | --- | --- | --- | --- | --- | --- |
| H3255 | 0.673 | 0.782 | 0.604 | 0.603 | 0.573 | 0.561 | 0.616 | 0.638 | 0.782 | 0.937 | 0.853 | 0.864 | 0.483 | 0.429 | 0.584 | 0.695 |  |
| 201T | 1.02 | 0.986 | 0.939 | 0.523 | 0.333 | 0.315 | 0.313 | 0.34 | 0.954 | 1.05 | 1.04 | 1.03 | 1.23 | 1.19 | 1.21 | 1.2 | 1 |
| NCI-H2126 | 0.829 | 0.848 | 0.806 | 0.545 | 0.644 | 0.68 | 0.694 | 0.7 | 1.06 | 1.03 | 1.09 | 1.01 | 0.914 | 0.751 | 0.845 | 0.874 | 0.962 |
| HOP-62 | 0.356 | 0.362 | 0.366 | 0.554 | 0.297 | 0.32 | 0.284 | 0.282 |  | 1.05 | 0.994 | 0.789 | 1.06 | 0.975 | 0.943 | 0.404 | 0.456 |
| CAL-12T | 0.312 | 0.324 | 0.255 | 0.194 | 1.09 | 1.21 | 0.502 | 0.314 | 0.659 | 0.535 | 0.367 | 0.185 | 1.33 | 0.925 | 0.518 | 0.172 | 0.366 |
| NCI-H596 | 0.868 | 1.05 | 0.513 | 0.267 | 0.432 | 0.457 | 0.525 | 0.36 | 1.05 | 1.02 | 1.12 | 0.677 | 1.01 | 1.05 | 1.3 | 0.291 | 1.01 |
| NCI-H1755 | 0.463 | 0.605 | 0.504 | 0.331 | 0.421 | 0.397 | 0.454 | 0.469 | 0.83 | 0.859 | 0.919 | 0.843 | 0.987 | 0.974 | 1.04 | 0.989 | 0.529 |
| NCI-H2023 | 0.384 | 0.354 | 0.225 | 0.178 | 0.224 | 0.231 | 0.267 | 0.202 | 0.612 | 0.595 | 0.631 | 0.59 | 0.995 | 1.14 | 0.958 | 0.995 | 0.396 |
| NCI-H2009 | 0.816 | 0.716 | 0.627 | 0.311 | 1.04 | 1.01 | 0.872 | 0.545 | 1.02 | 1.04 | 1.06 | 0.827 | 1.17 | 1.2 | 1.22 | 0.812 | 0.848 |
